Test results reported in patent US6329497A, “Sandramycin analogs” (The Scripps Research Institute, priority 1999, dated 2001).
Entries after “also recorded” stand apart in the source; their conditions may differ.

Key:
[1] = system: 5'-d(GCGCGC)2; experiment: Sandramycin binding to deoxyoligonucleotides, fluorescence quenching, 5'-d(GCGCGC)2
Procedure: (§1) Apparent absolute DNA binding constants for 1-22 and related agents including luzopeptin A were obtained by measurement of the fluorescence quenching upon titration addition of calf thymus DNA or the deoxyoligonucleotides 5'-d(GCXXGC)2 where XX=AT, TA, GC, and CG. For each agent, the characteristic fluorescence excitation and emission spectra were recorded in 10 mM Tris-HCl, 75 mM NaCl (pH 7.4) buffer, FIG. 6. For the DNA binding assays which quantitate the fluorescence quenching, excitation outside the absorbance range of DNA was employed and the most intense fluorescence emission at a longer wavelength monitored. For assay of the DNA-induced fluorescence quenching of the agents, a 2 mL buffer solution of Tris-HCl (pH 7.4) and 75 mM NaCl was employed. For titration, small aliquots of DNA were added to solutions of the agents in Tris-HCl buffer (pH 7.4).
(§2) A pronounced downward curvature in an infinite lattice such as calf thymus DNA is recognized to arise in part from neighbor exclusion where the binding of an agent excludes the subsequent binding at nearby sites. […]
(§3) After 5 min of stirring, an initial fluorescence reading was taken with minimum exposure to the excitation beam. […] The results of the titration were analyzed by Scatchard analysis. […]

[2] = target: HIV-1 reverse transcriptase (Human immunodeficiency virus type 1 group M subtype B, UniProt P04585); experiment: Inhibition of HIV-1 reverse transcriptase; format: biochemical
Procedure: The assay was performed according to an available procedure (Goldman, M. E.; Salituro, G. S.; Bowen, J. A.; Williamson, J. M.; Zink, D. L.; Schleif, W. A.; Emini, E. A. Mol. Pharmacol. 1990, 38, 20) with slight modification. A 45 L solution of reaction buffer containing 55 mM Tris·HCl, pH 8.2, 80 mM potassium chloride, 12 mM MgCl2, 1 mM DTT, 50 M EGTA, 2.5 g/mL rA·dT, 0.5 Ci of [^3 H]TTP, 10 M TTP, 1 mg/mL BSA, and 0.01% Triton X-100 was added to a well in a filter cluster plate (Millipore MAHV N45). The reverse transcription reaction was initiated upon addition of the reverse transcriptase (1 unit; 1 unit=10 pmol of [^3 H]TMP incorporated/60 min at 37° C.). The plate was incubated at 37° C. for 90 min. The plate was then placed on ice and 200 µL of 13% trichloroacetic acid and 10 mM sodium pyrophosphate was added to each well. The plate was chilled for 2 h and the liquid vacuumed out through the filter using a Millipore manifold (Millipore MAVM 09601). The precipitate was washed with 1 M and 10 mM sodium pyrophosphate twice. The filter was punched out and placed in a scintillation vial. 4 mL of cocktail was added. Radioactivity was determined by liquid scintillation counting.
The effects of sandramycin and its analogs on HIV-1 reverse transcriptase were determined by incubating the agents and the rA·dT containing buffer at 25° C. for 30 min prior to addition of the reverse transcriptase. Reactions containing no agents were used as controls, and those lacking the transcriptase were used as blanks.

[3] = system: 5'-d(GCCGGC)2; experiment: Sandramycin binding to deoxyoligonucleotides, fluorescence quenching, 5'-d(GCCGGC)2
Procedure: as §1, §2, §3

[4] = system: 5'-d(GCTAGC)2; experiment: Sandramycin binding to deoxyoligonucleotides, fluorescence quenching, 5'-d(GCTAGC)2
Procedure: as §1, §2, §3

[5] = system: HL-60; experiment: In vitro cytotoxic activity, HL-60; format: cell-based
[6] = system: leukemia cell lines; conditions: typical
[7] = system: L1210 cell line; experiment: In vitro cytotoxic activity, L1210; format: cell-based
[8] = system: melanomas, carcinomas, and adenocarcinomas; experiment: In vitro cytotoxic activity of 4 against tumor cell lines; format: cell-based
[9] = system: two single mutant and one double mutant of HIV-1 reverse transcriptase; conditions: cited from earlier work
[10] = system: five cell lines; experiment: In vitro cytotoxic activity of key substructure analogs, five cell lines; format: cell-based
[11] = system: calf thymus DNA; experiment: DNA binding constant determination for 23 (ethidium bromide displacement; sandramycin titration)
Procedure: Calf thymus DNA (1.0×10^-5 M in base-pair) was mixed with ethidium bromide (5.0×10^-6 M) resulting in a 2:1 ratio of base-pair:ethidium in a 10 mM Tris-HCl (pH 7.4), 75 mM NaCl buffer solution (2 mL). The fluorescence was calibrated at 24° C. to 100% F and 0% F with a DNA-ethidium buffer solution and ethidium buffer solution, respectively. The premixed DNA-ethidium solution was titrated with small aliquots of 23 (20 to 40 μL of 3 mM […] in DMSO) and incubated at 24° C. for 30 min prior to each fluorescence measurement. The fluorescence was measured with 545 nm excitation and 595 nm emission with a slit width of 10 nm. The absolute binding constant from three such titrations were determined at 50% ethidium bromide displacement as measured by a drop in fluorescence to 50%. The binding constant of ethidium bromide employed to calculate the absolute binding constant with a competitive or noncompetitive binding model^39 was 4.5×10^5 M^-1 and the results are summarized in Table 4.
A 2 mL of sample containing 400 μL of calf thymus DNA (320 μM in base-pair) with or without the presence of 40 μL of 23 (3.2×10^-3 M in DMSO) in 10 mM Tris-HCl (pH 7.4), 75 mM NaCl buffer solution was titrated with small aliquots of sandramycin (1 μL, 1.0×10^-3 M in DMSO). The quenching of fluorescence was measured 5 min after each addition of sandramycin with 360 nm excitation and 530 nm fluorescence.

With CC(C)[C@H]1C(=O)OC[C@H](NC(=O)c2nc3ccccc3cc2O)C(=O)N2CCCC[C@@H]2C(=O)NCC(=O)N(C)CC(=O)N(C)[C@H](C(C)C)C(=O)OC[C@@H](NC(=O)c2nc3ccccc3cc2O)C(=O)N2CCCC[C@@H]2C(=O)NCC(=O)N(C)CC(=O)N1C [compound 1, Sandramycin] the “G° relative to 5'-d(GCATGC)2” value [1] was 0.3 kcal/mol, the “HIV-1 reverse transcriptase inhibition, in words” value [2] was “slightly more effective than luzopeptin A” and the IC50 ([2]; range given for both agents) was 130 to 190 nM. The “G° relative to 5'-d(GCATGC)2” value [3] was 0.6 kcal/mol and the “G° relative to 5'-d(GCATGC)2” value [4] was 0.6 kcal/mol.
In the case of CC(C)[C@H]1C(=O)OC[C@@H](NC(=O)c2ccc3ccccc3n2)C(=O)N2CCCC[C@H]2C(=O)NCC(=O)N(C)CC(=O)N(C)[C@@H](C(C)C)C(=O)OC[C@@H](NC(=O)c2ccc3ccccc3n2)C(=O)N2CCCC[C@H]2C(=O)NCC(=O)N(C)CC(=O)N1C [compound 4, (N-(Quinol-inyl-2-carbonyl)-D-Ser-Pip-Gly-Sar-NMe-Val)2 (Serine Hydroxyl) Dilactone], the “cytotoxic potency, in words” value [5] is reported as “exceptionally potent; also recorded: unusually potent”, the “fold less potent than sandramycin (luzopeptin A or sandramycin)” value [6] is reported as 4-10 and the “cytotoxic potency, fold less potent than 1” value [7] is reported as 10. For the same compound, the “HIV-1 reverse transcriptase inhibition, in words” value [2] was “Comparable but slightly less potent inhibition”, the “fold less potent than sandramycin” value [2] was 3 and the “rank order of cytotoxic potency” value ([8]; carcinomas and adenocarcinomas) was 4>luzopeptin A>sandramycin (1). For the same compound, the “rank order of cytotoxic potency” value ([8]; melanomas) was 4=luzopeptin A>sandramycin (1) and the “fold more potent than sandramycin (luzopeptin A or sandramycin)” value ([8]; melanomas, carcinomas, adenocarcinomas) was 1-10,000.
For COc1ccc2nc(C(=O)N[C@@H]3COC(=O)[C@H](C(C)(C)O)N(C)C(=O)CN(C)C(=O)CNC(=O)[C@@H]4[C@@H](OC(=O)[C@@H]5C[C@H]5C)CC=NN4C(=O)[C@H](NC(=O)c4cnc5cc(OC)ccc5n4)COC(=O)[C@H](C(C)(C)O)N(C)C(=O)CN(C)C(=O)CNC(=O)[C@@H]4C(OC(=O)[C@@H]5C[C@H]5C)CC=NN4C3=O)cnc2c1 (some centres unmarked) [quinoxapeptin A], the “relative effectiveness against mutants versus HIV-1 reverse transcriptase” value [9] is given as 1-3.
For “(N-BOC-D-Ser-Pip-Gly-Sar-NMe-Val)2 (Serine Hydroxyl) Dilactone [compound 23]”, the “cytotoxic activity, in words” value ([10]; both chromophores removed) was “inactive”, the “fold less potent than 1” value ([10]; five cell lines) was “approx 10^5” and the “G° of binding” value [11] was -6.0 kcal/mol.
